Patent EP3008041B1, “3-CARBAMOYL-1-METHYL[…], PROCESS FOR ITS PREPARATION AND ITS USE” (Uniwersytet Jagiellonski, priority 2013, dated 2014)
Where two headings read alike, the source gives them in different places.

Columns and labels:
[1] = pharmacokinetics of MNA in rat plasma after single intravenous administration; assay type: in vivo, rats; conditions: 100 mg/kg
Experimental: (§1) A method using high performance liquid chromatography combined with tandem mass spectrometry (LC/ESI-MS/MS) was developed and validated to determine concentrations of 1-methylnicotinamide (MNA) in rat plasma. […] The pharmacokinetic parameters were determined by a non-compartmental model using Phoenix WinNonlin software (Pharsight, Sannyvale, CA, USA).

[2] = pharmacokinetics of MNA in rat plasma after single intragastric administration; assay type: in vivo, rats; conditions: 100 mg/kg; for AUC0→∞ / F / t0.5 / Cmax / MRT / tmax: MNA in rat plasma, single intragastric administration
Experimental: as §1

[3] = tested on: plasma coagulation system
Experimental: Coagulation parameters: prothrombin time (PT), activated partial thromboplastin time (aPTT), fibrinogen concentration by Caluss and the prothrombin time percentage ratio (Quick index) were assessed in frozen plasma (-80°C) using a Caog-Chrom 3003 Bio-ksel Grudzi ? dz device.

[4] = Experimental: The complete blood count was assessed approximately 2 minutes after collection in fresh citrated blood using an automatic Horiba ABC Vet device. The following parameters were assessed: white blood cell count (WBC), red blood cell count (RBC), haemoglobin (HGB), haematocrit (HCT), mean corpuscular volume (MCV), mean corpuscular haemoglobin (MCH), mean corpuscular haemoglobin concentration (MCHC) and platelet count (PLT).
platelets = conditions: hypertensive rats after arterial thrombosis, 3 days per os twice a day (FIG. 2)
Experimental: The blood was diluted with 0.9% NaCl at a ratio of 1:1 and stirred in an aggregation cuvette at 1200 rpm. Samples of the stirred blood were collected after 20, 40 and 60 min and at "0" time and mixed with a cold solution of ASA (final concentration: 500 µM) at a ratio of 1:1. In these samples, TxB2 was determined using the ELISA assay, according to the manual provided by the manufacturer of the reagent kit.

[5] = TG technique under a nitrogen atmosphere
Experimental: Thermal stability was determined using the TG technique under a nitrogen atmosphere (with the use of the Mettler Toledo Star TGA/DSC 1 device).

normotensive rats = conditions: 30 mg/kg i.v., single dose 10 min before induction of thrombosis
Experimental: The normotensive and hypertensive rats were then anesthetised with pentorbital (40 mg/kg, i.p.). After removing the skin in the neck region, an approximately 0.5 cm long section of the left common carotid artery was isolated. To avoid haemorrhaging, the isolation was performed by tearing the surrounding tissues of the artery without the use of sharp instruments. The method of arterial thrombosis (according to Schumacher et al., 1996) with own modification (Kramkowski et al., 2012) involves damage to the endothelium isolated from a section of the artery by electric current (1 mA, 5-15 V, 10 min.). The anode is a stainless steel wire with a bent hook-shaped tip placed in a holder to remain stable during the experiment. Its tip was placed under the artery. A piece of parafilm was placed under the artery to keep it isolated. The cathode was a needle inserted subcutaneously in the hind limb region. Once the stimulation is completed, the formation of thrombus lasts 45 minutes. After this time, the artery was ligated at both sides of the thrombus, and the damaged fragment containing the thrombus was excised. The thrombus was quantitatively extracted from the artery and transferred to a previously tared microscope cover slip. The thrombi were allowed to dry (at room temperature and average humidity) and weighed not earlier than after 24 hours.

[6] = hypertensive (2K1C) rats
fibrin = conditions: hypertensive (2K1C) rats, 30 mg/kg i.v.
Remark: listed apart in the source
[7] = colour change from pale yellow to brown
[8] = hypertensive (2K1C) rats, 30 mg/kg i.v.
[9] = hypertensive (2K1C) rats, 30 mg/kg p.o.
[10] = normotensive rats, 10 mg/kg i.v.
[11] = normotensive rats, 30 mg/kg i.v.
[12] = normotensive rats, 100 mg/kg i.v.

C[n+]1cccc(C(N)=O)c1.[Cl-] [MNACl, 3-carbamoyl-1-methylpyridinium chloride, reference compound]
AUC0→∞ [1]: 4,362,231 ± 999,203 µg·min/L
Co [1]: 141,311 ± 56,500 µg/L
clearance [1]: 24 ± 5 mL/min/kg
t0.5 [1]: 162.5 ± 76.2 min
Vd ([1]; read-out: Vss): 1.06 ± 0.35 L/kg
MRT ([1]; rat, plasma, iv): ~43 min
AUC0→∞ [2]: 407,132 ± 164,906 µg·min/L
F [2]: 9.33%
t0.5 [2]: 247.4 ± 201 min
Cmax ([2]; po, read-out: Cmax): 2810 ng/mL
MRT ([2]; po, read-out: MRT (converted)): 359 min
tmax ([2]; po, read-out: tmax (converted)): 57.5 min

C[n+]1cccc(C(N)=O)c1.O=N[O-] [MNANO2, 3-carbamoyl-1-methylpyridinium nitrite]
APTT [3, 8]: 18.46 ± 0.81 s
Fglevel [3, 8]: 2.36 ± 0.13 ng/mL
PT [3, 8]: 17.40 ± 0.69 s
QUICK [3, 8]: 63.50±5.04
APTT [3, 9]: 17.79 ± 0.62 s
Fglevel [3, 9]: 2.61 ± 0.10 ng/mL
PT [3, 9]: 18.16 ± 0.47 s
QUICK [3, 9]: 62.00±4.01
APTT [3, 10]: 2.00 ± 2.68 s
Fglevel [3, 10]: 2.04 ± 0.09 ng/mL
PT [3, 10]: 18.23 ± 0.68 s
QUICK [3, 10]: 61.75±5.42
APTT [3, 11]: 25.67 ± 6.07 s
Fglevel [3, 11]: 2.15 ± 0.28 ng/mL
PT [3, 11]: 18.10 ± 0.81 s
QUICK [3, 11]: 63.00±7.57
APTT [3, 12]: 26.27 ± 2.89 s
Fglevel [3, 12]: 1.96 ± 0.11 ng/mL
PT [3, 12]: 19.17 ± 0.27 s
QUICK [3, 12]: 53.33±1.67
HCT [4, 8]: 38.35±0.49%
HGB [4, 8]: 12.27 ± 0.16 g/dL
MCH [4, 8]: 17.51±0.26 pg per cell
MCHC [4, 8]: 31.65 ± 0.21 g/dL
MCV [4, 8]: 54.86 ± 0.60 fL
PLT [4, 8]: 621±18 103/µL
RBC [4, 8]: 7.36±0.19 106/µL
WBC [4, 8]: 2.87±0.35 106/µL
HCT [4, 9]: 40.07±0.03%
HGB [4, 9]: 13.23 ± 0.24 g/dL
MCH [4, 9]: 18.77±0.71 pg per cell
MCHC [4, 9]: 32.97 ± 0.58 g/dL
MCV [4, 9]: 57.00 ± 1.53 fL
PLT [4, 9]: 630±12 103/µL
RBC [4, 9]: 7.05±0.18 106/µL
WBC [4, 9]: 2.93±0.26 106/µL
HCT [4, 10]: 30.03±1.26%
HGB [4, 10]: 12.15 ± 0.26 g/dL
MCH [4, 10]: 25.05±0.53 pg per cell
MCHC [4, 10]: 40.93 ± 1.00 g/dL
MCV [4, 10]: 61.25 ± 0.25 fL
PLT [4, 10]: 493±17 10^3/µl
RBC [4, 10]: 4.90±0.18 106/µl
WBC [4, 10]: 1.95±0.35 106/µl
HCT [4, 11]: 29.07±1.61%
HGB [4, 11]: 12.30 ± 0.26 g/dL
MCH [4, 11]: 25.73±0.92 pg per cell
MCHC [4, 11]: 42.40 ± 1.32 g/dL
MCV [4, 11]: 60.68 ± 0.33 fL
PLT [4, 11]: 489±23 10^3/µl
RBC [4, 11]: 4.80±0.29 106/µl
WBC [4, 11]: 1.77±0.43 106/µl
HCT [4, 12]: 33.33±1.31%
HGB [4, 12]: 12.67 ± 0.47 g/dL
MCH [4, 12]: 25.53±0.48 pg per cell
MCHC [4, 12]: 37.97 ± 0.18 g/dL
MCV [4, 12]: 62.00 ± 1.16 fL
PLT [4, 12]: 566±56 10^3/µl
RBC [4, 12]: 5.38±0.21 106/µl
WBC [4, 12]: 1.12±0.19 106/µl
thromboxane B2 (TxB2) production by platelets ex vivo (platelets): inhibition of thromboxane B2 (TxB2) production
AUC0→∞ [1]: 6,948,716 ± 1,810,664 µg·min/L
Cl [1]: 15 ± 3 mL/min/kg
Co [1]: 138,078 ± 33,208 µg/L
Vss [1]: 0.63 ± 0.1 L/kg
t0.5 [1]: 61.7 ± 19.6 min
AUC0→∞ [2]: 638,056 ± 167,631 µg·min/L
Cmax [2]: 8,881 ± 5,506 µg/L
F [2]: 9.18%
MRT [2]: 232 ± 38.3 min
t0.5 [2]: 178.4 ± 12.2 min
tmax [2]: 15 ± 10 min
concentration in rat plasma compared to MNACl administration ([2]; intragastric administration): three times higher
time of occurrence of the maximum concentration compared to MNACl administration ([2]; intragastric administration): four times shorter
Tonset [5]: 195 °C
Tonset5% [5]: 170 °C
Thrombus weight (normotensive rats): 0.78 ± 0.05 mg
Concentration of MNA in plasma after collecting thrombus ([6]; 30 mg/kg i.v.): 8.72 ± 4.90 µM
Concentration of MNA in plasma after collecting thrombus ([6]; 30 mg/kg p.o.): 5.76 ± 3.78 µM
Generation of fibrin (AUC) (fibrin): 186.00±10.23
solubility (DMSO): soluble
solubility (diethyl ether): not soluble
solubility (ethanol): soluble
solubility (hexane): not soluble
solubility (methanol): soluble
solubility (water): soluble
stability of aqueous solutions [7]: not stable over time
